Each block holds one compound with its values, some of them ahead of it.
Key:
Type in all cases: biochemical
[1] = molecular target: T1, human ABHD12 (Homo sapiens, UniProt Q8N2K0); experiment: ABHD12 activity by competitive ABPP with FP-TAMRA; settings: 100 µM compound, competitive ABPP with probe FP-TAMRA (250 nM), read-out: ABHD12 Inhibition (%)
T1 construct: expressed in transfected cells; host or cells: HEK293T (transient transfection; membrane fraction)
T1 sequence (Q8N2K0 1-398): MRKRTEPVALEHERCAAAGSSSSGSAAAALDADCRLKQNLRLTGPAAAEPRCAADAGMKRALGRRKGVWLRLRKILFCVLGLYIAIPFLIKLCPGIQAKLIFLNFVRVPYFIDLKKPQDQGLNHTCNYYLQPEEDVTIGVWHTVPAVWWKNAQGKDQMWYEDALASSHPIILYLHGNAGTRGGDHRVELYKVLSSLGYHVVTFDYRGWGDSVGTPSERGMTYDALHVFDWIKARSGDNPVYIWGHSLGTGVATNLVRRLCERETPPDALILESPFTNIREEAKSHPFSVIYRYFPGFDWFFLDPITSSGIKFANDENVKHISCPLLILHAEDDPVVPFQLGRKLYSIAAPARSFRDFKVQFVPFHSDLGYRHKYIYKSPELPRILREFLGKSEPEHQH
Description: (§1) HEK293T cells were cultured at 37°C under 5% CO2 in a DMEM medium with stable glutamine and phenolred, containing 10% fetal bovine serum (FBS, Gibco), penicillin, and streptomycin. The cells were passaged every 2–3 days by resuspension in the medium at ∼90% confluence. The membranes used in this study were prepared from transiently transfected HEK293T cells. Briefly, 1 day prior to transfection, ∼10^7 cells were seeded in 15 cm plates, and then the cells were transfected by the addition of a mixture of polyethyleneimine and plasmid DNA (3:1, 60, and 20 µg) in 2 ml of medium (without serum). Of note, the empty pcDNA3.1 vector was used in the Mock-control. After 24 h, the medium was removed and the cells were refreshed with fresh medium. After 72 h, the cells were harvested by suspending in 20 ml of medium, and the supernatant was removed by centrifugation for 10 min at 1,000 rpm. The cell pellet was flash frozen in liquid nitrogen and stored at −80°C until use. Subsequently, the cell pellets were suspended in lysis buffer (30 mM Tirs, pH 7.5, 1 mM MgCl2, 25 U/ml Benzonase), which was homogenized by sonication (3 × 10 bursts) and incubated for 30 min on ice. The membrane fractions overexpressing MAGL/ABHD6/ABHD12 were separated by ultracentrifuge (100,000 g, 30 min, 4 C). The protein concentration was determined with a Qubit protein assay (Invitrogen). The protein samples were quickly frozen in liquid nitrogen and stored at −80 C until use.
The ABHD12 activity assay is based on competitive activity-based protein profiling (ABPP) with human ABHD12 overexpressing membrane fractions. Briefly, the membrane proteome (1 mg/ml, 20 µl) was incubated at room temperature with 0.5 µl DMSO (vehicle) or inhibitor for 30 min. Subsequently, the samples were treated with the activity-based probe FP-TAMRA (250 nM, final concentration) for 20 min. The reactions were then quenched by 10 µl sample buffer (×4) (final concentrations: 60 mM Tris, pH 6.8, 2% (w/v) SDS, 10% (v/v) glycerol, 5% (v/v) β-mercaptoethanol, 0.01% (v/v) bromophenol blue). The samples were directly loaded and resolved on SDS-PAGE gel (10% acrylamide), which were then scanned using a ChemiDoc MP system (Cy3 settings, BioRad).

[2] = molecular target: T2, human ABHD6 (Homo sapiens, UniProt Q9BV23); experiment: ABHD6 activity assay (AA-HNA fluorogenic substrate); settings: 100 µM, AA-HNA substrate assay, Supplementary Table 2, read-out: ABHD6 Inhibition (%)
T2 construct: expressed in transfected cells; host or cells: HEK293T (transient transfection; membrane fraction)
T2 sequence (Q9BV23 1-337): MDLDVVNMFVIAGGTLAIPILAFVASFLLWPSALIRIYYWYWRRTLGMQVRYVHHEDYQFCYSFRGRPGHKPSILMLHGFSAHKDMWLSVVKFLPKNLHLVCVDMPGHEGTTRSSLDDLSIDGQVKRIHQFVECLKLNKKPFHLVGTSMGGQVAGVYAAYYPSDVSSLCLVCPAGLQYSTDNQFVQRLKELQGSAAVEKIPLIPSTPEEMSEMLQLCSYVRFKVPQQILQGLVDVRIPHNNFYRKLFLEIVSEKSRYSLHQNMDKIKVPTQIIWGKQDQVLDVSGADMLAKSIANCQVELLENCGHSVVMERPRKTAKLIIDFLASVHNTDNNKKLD
Description: as §1
The MAGL activity assay is based on the hydrolysis of 2-arachidonoylglycerol-based fluorogenic substrate by MAGL-overexpressing membrane preparations from transiently transfected HEK293T cells. In brief, the reactions were performed in HEPES buffer (40 mM HEPES, pH 7.5, 0.1 mg/ml BSA) in black, flat bottom 96-well plates. The final protein concentration of membrane fractions from overexpressing human MAGL HEK293T cells was 12.5 μg/ml 5 µl of inhibitors were added from×40 concentrated DMSO stocks in the 96-well plate containing 145 µl assay buffer, followed by the addition of 40 µl of the protein (12.5 μg/ml). After the incubation of the inhibitor-protein complex for 30 min, 10 µl of the fluorogenic substrate (AA-HNA, 200 µM) was added and fluorescence was measured in 1 min intervals for 30 min on a plate reader (BioTek). Final assay concentrations: 12.5 μg/ml MAGL, […], and […] in the total volume of 200 µl. All the measurements were performed in N = 2, n = 2 for inhibitors and N = 2, n = 4 for controls with Z′ value ≥0.6. The slope is determined in 5–15 min for all the experiments.
The ABHD6 activity assay is based on the same principle as the MAGL activity assay described earlier, but with human ABHD6 overexpressing membrane preparations at a final protein concentration of 50 μg/ml and 200 µM AA-HNA. Other conditions are the same as those of the MAGL activity assay.

[3] = molecular target: T3, human MAGL (Homo sapiens, UniProt Q99685); experiment: MAGL activity assay (AA-HNA fluorogenic substrate); settings: 100 µM, AA-HNA substrate assay, Supplementary Table 1, read-out: MAGL Inhibition (%)
T3 construct: expressed in transfected cells; host or cells: HEK293T (transient transfection; membrane fraction)
T3 sequence (Q99685 1-303): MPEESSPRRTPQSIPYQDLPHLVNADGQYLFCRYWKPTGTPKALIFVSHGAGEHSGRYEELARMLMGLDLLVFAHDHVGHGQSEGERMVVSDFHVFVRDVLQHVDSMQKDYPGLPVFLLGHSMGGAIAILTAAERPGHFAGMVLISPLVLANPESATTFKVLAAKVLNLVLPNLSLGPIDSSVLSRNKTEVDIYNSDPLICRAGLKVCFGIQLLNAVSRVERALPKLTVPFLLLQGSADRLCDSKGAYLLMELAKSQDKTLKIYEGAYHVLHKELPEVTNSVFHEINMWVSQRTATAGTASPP
Description: as §1
The MAGL activity assay is based on the hydrolysis of 2-arachidonoylglycerol-based fluorogenic substrate by MAGL-overexpressing membrane preparations from transiently transfected HEK293T cells. In brief, the reactions were performed in HEPES buffer (40 mM HEPES, pH 7.5, 0.1 mg/ml BSA) in black, flat bottom 96-well plates. […] After the incubation of the inhibitor-protein complex for 30 min, 10 µl of the fluorogenic substrate (AA-HNA, 200 µM) was added and fluorescence was measured in 1 min intervals for 30 min on a plate reader (BioTek). […] All the measurements were performed in N = 2, n = 2 for inhibitors and N = 2, n = 4 for controls with Z′ value ≥0.6. The slope is determined in 5–15 min for all the experiments.

Compound: COc1ccc([C@@H]2CC(=O)c3c(O)cc(O[C@@H]4O[C@H](CO)[C@@H](O)[C@H](O)[C@H]4O[C@@H]4O[C@@H](C)[C@H](O)[C@@H](O)[C@H]4O)cc3O2)cc1O [compound 57, Neohesperidin]
activity [1]: 75.6%
activity [2]: 98.7%
activity [3]: 86.8%

Compound: COc1ccc(-c2cc(=O)c3c(OC)c(OC)c(OC)c(OC)c3o2)cc1OC [compound 58, Nobiletin]
activity at 100 µM [1]: 75.6%
activity at 100 µM [2]: 100%
activity at 100 µM [3]: 83.4%

Compound: CC1(C)CC[C@]2(C(=O)O)CC[C@]3(C)C(=CC[C@@H]4[C@@]5(C)CC[C@H](O)C(C)(C)[C@@H]5CC[C@]43C)[C@@H]2C1 [compound 59, Oleanolic Acid]
activity at 100 µM [1]: 57.7%
activity at 100 µM [2]: 98.5%
activity at 100 µM [3]: 130%

Compound: C=C1C(=O)[C@]23[C@H](O)[C@H]1CC[C@H]2[C@@]12CO[C@]3(O)[C@@H](O)[C@@H]1C(C)(C)CC[C@@H]2O [compound 60, Oridonin]
activity at 100 µM [1]: 74.6%
activity at 100 µM [2]: 102%
activity at 100 µM [3]: 59.6%

Compound: O=C(O)c1cc(=O)[nH]c(=O)[nH]1 [compound 61, Orotic acid]
activity at 100 µM [1]: 97.2%
activity at 100 µM [2]: 113%
activity at 100 µM [3]: 101%

Compound: COc1ccc2ccc(=O)oc2c1CC=C(C)C [compound 62, Osthole]
activity at 100 µM [1]: 106%
activity at 100 µM [2]: 112%
activity at 100 µM [3]: 94.5%

Compound: O=C1CCC[C@@H]2[C@H]3CCC[N+]4([O-])CCC[C@@H](CN12)[C@@H]34 (stereo partly drawn) [compound 63, Oxymatrine]
activity at 100 µM [1]: 91.3%
activity at 100 µM [2]: 102%
activity at 100 µM [3]: 99.9%

activity [1]: 92.4%
activity [2]: 105%
activity [3]: 87.5%
Compound: C=C1C(=O)O[C@H]2[C@H]1CC/C(C)=C/CC[C@@]1(C)O[C@@H]21 [compound 65, (-)-Parthenolide]

Compound: O=C(CCc1ccc(O)cc1)c1c(O)cc(O)cc1O[C@@H]1O[C@H](CO)[C@@H](O)[C@H](O)[C@H]1O [compound 67, Phlorizin]
activity at 100 µM [1]: 96.7%
activity at 100 µM [2]: 116%
activity at 100 µM [3]: 75.9%

Compound: O=C(/C=C/C=C/c1ccc2c(c1)OCO2)N1CCCCC1 [compound 68, Piperine]
activity at 100 µM [1]: 90.8%
activity at 100 µM [2]: 112%
activity at 100 µM [3]: 99.7%

Compound: O=c1c(-c2ccc(O)cc2)coc2c([C@@H]3O[C@H](CO)[C@@H](O)[C@H](O)[C@H]3O)c(O)ccc12 [compound 69, Puerarin]
activity at 100 µM [1]: 104%
activity at 100 µM [2]: 119%
activity at 100 µM [3]: 94.8%

Compound: O=c1c2ccccc2nc2n1CCc1c-2[nH]c2ccccc12 [compound 71, Rutaecarpine]
activity at 100 µM [1]: 97%
activity at 100 µM [2]: 111%
activity at 100 µM [3]: 99.2%

Compound: C[C@@H]1O[C@@H](OC[C@H]2O[C@@H](Oc3c(-c4ccc(O)c(O)c4)oc4cc(O)cc(O)c4c3=O)[C@H](O)[C@@H](O)[C@@H]2O)[C@H](O)[C@H](O)[C@H]1O [compound 72, Rutin]
activity at 100 µM [1]: 84.3%
activity at 100 µM [2]: 119%
activity at 100 µM [3]: 75.9%

Compound: Methyl-Hesperidin [compound 50]
activity [1]: 76.8%
activity [2]: 94.2%
activity [3]: 62.5%

Compound: Myricitrin [compound 53]
percent inhibition [1]: 70%
percent inhibition of ABHD6 [2]: 105%
percent inhibition [3]: 93.1%

From paper PMC9465256, “Discovering monoacylglycerol lipase inhibitors by a combination of fluorogenic substrate assay and activity-based protein profiling” (Frontiers in Pharmacology, 2022)
